*1 amine or outer side, *2 acyl side, *3 side chain or, on linkers, in order; H or OH if unused. Where a SMILES comes first, the peptide text is derived from it. Bridges are numbered along the chain shown (N, C = ends). [ ]: non-standard residue; d: D form. The star is where a group is joined. hPhe(3,5-F2-4-CF3) = N[C@@H](CCc1cc(F)c(C(F)(F)F)c(F)c1)C(=O)O; hPhe(3-Cl-4-CF3) = N[C@@H](CCc1ccc(C(F)(F)F)c(Cl)c1)C(=O)O; X18 = CCCCN([C@@H](Cc1ccc(C(F)(F)F)cc1)C(=O)[*:2])[*:1]; NPrPhe(4-CF3) = CCCN[C@@H](Cc1ccc(C(F)(F)F)cc1)C(=O)O; NMeGly(cPent) = CN[C@H](C(=O)O)C1CCCC1; X7 = C[C@@](N[*:1])(C(=O)[*:2])C1CC1; Hyp = O=C(O)[C@@H]1C[C@@H](O)CN1; NMeD = CN[C@@H](CC(=O)O)C(=O)O; NMeL = CN[C@@H](CC(C)C)C(=O)O; Morpholide = C1CN(*)CCO1; Ac5c = NC1(C(=O)O)CCCC1; Sar = CNCC(=O)O
Assays:
[1] = molecular target: GDP-bound NRAS wild-type protein (Homo sapiens, UniProt P01111); test: Binding to NRAS by surface plasmon resonance (SPR), KD and KD ratio to KRAS
GDP-bound NRAS wild-type protein, sequence (P01111 whole entry): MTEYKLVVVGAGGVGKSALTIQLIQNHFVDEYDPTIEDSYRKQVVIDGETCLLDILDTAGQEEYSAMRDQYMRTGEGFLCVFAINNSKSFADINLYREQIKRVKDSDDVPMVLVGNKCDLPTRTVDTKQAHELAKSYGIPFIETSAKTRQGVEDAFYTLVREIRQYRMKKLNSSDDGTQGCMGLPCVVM
How it was run: (§1)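 GDP-loaded biotinylated Avi-tag RAS proteins (E. coli-expressed) captured on a Biotin CAPture chip at ~100–300 RU; single-cycle kinetics at 30°C, 100 µL/min, 75 s injections of rising compound concentrations. HBS pH 7.4 running buffer with 1 mM DTT, 10 mM MgCl2, 10 µM GDP, 4% DMSO. KD from 1:1 binding fit.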

[2] = test system: human lung cancer strain NCI-H441; assay type: cell-based
How it was run: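 Readout: […] after the ATP-based reagent. Compound: serial dilutions in dimethyl sulfoxide.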

HRAS wild-type protein = HRAS wild-type protein (Homo sapiens, UniProt P01112); test: Binding to HRAS by surface plasmon resonance (SPR), KD and KD ratio to KRAS
HRAS wild-type protein, sequence (P01112 whole entry): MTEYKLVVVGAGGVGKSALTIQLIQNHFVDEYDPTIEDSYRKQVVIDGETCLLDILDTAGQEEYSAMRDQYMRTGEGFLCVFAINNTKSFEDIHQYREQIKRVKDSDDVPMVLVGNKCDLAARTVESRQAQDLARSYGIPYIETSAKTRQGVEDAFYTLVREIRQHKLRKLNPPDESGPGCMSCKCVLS
How it was run: as §1

[3] = ratio of KD for GDP-bound NRAS wild-type protein to KD for KRAS
[4] = ratio of KD for HRAS wild-type protein to KD for KRAS
[5] = ratio of the KD value with respect to GDP-bound NRAS wild-type protein to the KD value with respect to KRAS
[6] = ratio of the KD value with respect to HRAS wild-type protein to the KD value with respect to KRAS

| Structure (SMILES) | IC50 [2] [nM] | NRAS /KRAS [1, 3] | HRAS /KRAS (HRAS wild-type protein; [4]) | NRAS /KRAS ([1]; ratio of KD value for GDP-bound NRAS wild-type protein to KD value for KRAS (SPR)) | HRAS /KRAS (HRAS wild-type protein; ratio of KD value for HRAS wild-type protein to KD value for KRAS (SPR)) | NRAS /KRAS [1, 5] | HRAS /KRAS (HRAS wild-type protein; [6]) |
| --- | --- | --- | --- | --- | --- | --- | --- |
| CC[C@H](C)[C@@H]1NC(=O)[C@H](C)N(C)C(=O)C[C@@H](C(=O)N(C)C)N(C)C(=O)[C@H](C2CCCC2)N(C)C(=O)C2(CC(C)(C)C2)NC(=O)[C@@H]2CC(F)(F)CN2C(=O)[C@H](CCc2cc(F)c(C(F)(F)F)c(F)c2)NC(=O)CN(C)C(=O)[C@H](Cc2ccc(C(F)(F)F)cc2)N2CC/C=C\C[C@@H](C2=O)N(C)C(=O)CN(C)C1=O [PP1707] | 7.4 | – | – | AA (a compound having 20 or more is denoted as AA) | A (a compound having 10 or more and less than 20 is denoted as A) | – | – |
| CCCCN1C(=O)CN(C)C(=O)CN(C)C(=O)[C@H]([C@@H](C)CC)NC(=O)[C@H](CC(C)C)N(C)C(=O)C[C@@H](C(=O)N2CCOCC2)N(C)C(=O)[C@H](C2CCCC2)N(C)C(=O)C2(CCCC2)NC(=O)[C@@H]2CCCN2C(=O)[C@H](CCc2ccc(C(F)(F)F)c(Cl)c2)NC(=O)CN(C)C(=O)[C@@H]1Cc1ccc(C(F)(F)F)cc1 [PP0120] ([NMeL]I[Sar][Sar][X18][Sar][hPhe(3-Cl-4-CF3)]P[Ac5c][NMeGly(cPent)][NMeD]-Morpholide; lactam N-11) | 5.6 | B (a compound having 3 or more and less than 10 is denoted as B) | C (A compound having a KD ratio of 0.1 or more and less than 3 is denoted as C) | – | – | – | – |
| CCCN(C)C(=O)[C@@H]1CC(=O)N(C)[C@@H](C2CC2)C(=O)N[C@@H]([C@@H](C)CC)C(=O)N(C)CC(=O)N(C)[C@H]2C/C=C\CCN(C2=O)[C@@H](Cc2ccc(C(F)(F)F)cc2)C(=O)N(C)CC(=O)N[C@@H](CCc2cc(F)c(C(F)(F)F)c(F)c2)C(=O)N2C[C@H](OCC)C[C@H]2C(=O)NC2(CCC2)C(=O)N(C)[C@@H](C2CCCC2)C(=O)N1C [PP1994] | 22.4 | – | – | – | – | AA (a compound having 20 or more is denoted as AA) | A (a compound having 10 or more and less than 20 is denoted as A) |
| CC[C@H](C)[C@@H]1NC(=O)[C@@H]2CCCCCc3ccc(cc3)C[C@@H](C(=O)N(C)CC(=O)N[C@@H](CCc3ccc(C(F)(F)F)c(OC)c3)C(=O)N3C[C@H](OC(C)C)C[C@H]3C(=O)NC3(CC(C)(C)C3)C(=O)N(C)[C@@H](C3CCCC3)C(=O)N(C)[C@H](C(=O)N(C)C)CC(=O)N2C)N2CC/C=C\C[C@@H](C2=O)N(C)C(=O)CN(C)C1=O [PP3072] | 2.6 | A (a compound having 10 or more and less than 20 is denoted as A) | B (a compound having 3 or more and less than 10 is denoted as B) | – | – | – | – |
| CCCN1C(=O)CN(C)C(=O)CN(C)C(=O)[C@H]([C@@H](C)CC)NC(=O)[C@H](CC(C)C)N(C)C(=O)C[C@@H](C(=O)N(C)C)N(C)C(=O)[C@H](C2CCCC2)N(C)C(=O)[C@](C)(C2CC2)NC(=O)[C@@H]2CCCN2C(=O)[C@H](CCc2cc(F)c(C(F)(F)F)c(F)c2)NC(=O)CN(C)C(=O)[C@@H]1Cc1ccc(C(F)(F)F)cc1 [PP0734] ([NMeL]I[Sar][Sar][NPrPhe(4-CF3)][Sar][hPhe(3,5-F2-4-CF3)]P[X7][NMeGly(cPent)][NMeD]-NMe2; lactam N-11) | 28.8 | – | – | – | – | B (a compound having 3 or more and less than 10 is denoted as B) | C (A compound having a KD ratio of 0.1 or more and less than 3 is denoted as C) |

Further compounds by falling IC50 [2], results first:

| IC50 [2] [nM] | Structure (SMILES) | NRAS /KRAS [1, 3] | HRAS /KRAS (HRAS wild-type protein; [4]) | NRAS /KRAS ([1]; ratio of KD value for GDP-bound NRAS wild-type protein to KD value for KRAS (SPR)) | HRAS /KRAS (HRAS wild-type protein; ratio of KD value for HRAS wild-type protein to KD value for KRAS (SPR)) | NRAS /KRAS [1, 5] | HRAS /KRAS (HRAS wild-type protein; [6]) |
| --- | --- | --- | --- | --- | --- | --- | --- |
| 197 | CC[C@H](C)[C@@H]1NC(=O)[C@H](COC)N(C)C(=O)C[C@@H](C(=O)N2CCOCC2)N(C)C(=O)[C@H](C2CCCC2)N(C)C(=O)C2(CCC2)NC(=O)[C@@H]2CC(F)(F)CN2C(=O)[C@H](CCc2cc(F)c(C(F)(F)F)c(F)c2)NC(=O)CN(C)C(=O)[C@H](Cc2ccc(C(F)(F)F)cc2)N2CCCCC[C@@H](C2=O)N(C)C(=O)[C@@H]2CCN2C1=O [PP0866] | B (a compound having 3 or more and less than 10 is denoted as B) | B (a compound having 3 or more and less than 10 is denoted as B) | – | – | – | – |
| 1.6 | CCCN1C(=O)CN(C)C(=O)CN(C)C(=O)[C@H]([C@@H](C)CC)NC(=O)[C@H](CC(C)C)N(C)C(=O)C[C@@H](C(=O)N2CCOCC2)N(C)C(=O)[C@H](C2CCCC2)N(C)C(=O)C2(CCCC2)NC(=O)[C@@H]2C[C@@H](OCC)CN2C(=O)[C@H](CCc2ccc(C(F)(F)F)c(Cl)c2)NC(=O)CN(C)C(=O)[C@@H]1Cc1ccc(C(F)(F)F)cc1 [PP0233] ([NMeL]I[Sar][Sar][NPrPhe(4-CF3)][Sar][hPhe(3-Cl-4-CF3)][Hyp](Et)[Ac5c][NMeGly(cPent)][NMeD]-Morpholide; lactam N-11) | B (a compound having 3 or more and less than 10 is denoted as B) | C (A compound having a KD ratio of 0.1 or more and less than 3 is denoted as C) | – | – | – | – |
